Measured values: patent US12509445B2, “Herbicidally active 4-cyclopropyl-6-[4-(trifluormethyl)pyrazol-1-yl)]pyrimidines” (Bayer Aktiengesellschaft, priority 2019, dated 2025)

How the values were obtained:
Format in all cases: in vivo
[1] = tested on: Abutilon theophrasti (ABUTH); experiment: Post-emergence herbicidal action; conditions: 320 g/ha, visual rating after about 3 weeks vs untreated controls, 100% = plants have died
Procedure: (§1) Seeds of monocotyledonous and dicotyledonous weeds and crop plants are placed in sandy loam in plastic or organic plant pots, covered with soil and cultivated in a greenhouse under controlled growth conditions. 2 to 3 weeks after sowing, the test plants are treated at the one-leaf stage. The compounds of the invention, formulated in the form of wettable powders (WP) or as emulsion concentrates (EC), are then sprayed onto the green parts of the plants as aqueous suspension or emulsion with addition of 0.5% additive at a water application rate of 600 l/ha (converted). After the test plants have been kept in the greenhouse under optimum growth conditions for about 3 weeks, the activity of the preparations is rated visually in comparison to untreated controls. For example, 100% activity=the plants have died, 0% activity=like control plants.
(§2) The abbreviations used here have the following meanings: • ABUTH Abutilon theophrasti • AMARE Amaranlhus retroflexus • CYPES Cyperus serotinus • ECHCGEchinocloa crus galli • LOLRI Lolium rigidum Gaudin • PHBPU Pharbitis purpurcum • SETVI Setaria viridis • VERPE Veronica persica • ALOMY Alopccurus myosuroides • AVEFA Avena fatua • DIGSA Digitaria sanguinalis • LOLMU Lolium multiflorum • MATIN Matricaria inodora • POLCO Polygonum convolvulus • STEME Stellaria media • VIOTR Viola tricolor
(§3) The compounds according to the invention were tested by the post-emergence and pre-emergence methods under the conditions described above for comparative purposes with the structurally closest compounds known from WO 2005/089551 A1 (D1).

Avena fatua (AVEFA) = experiment: Post-emergence herbicidal action; conditions: 320 g/ha, visual rating after about 3 weeks vs untreated controls, 100% = plants have died
Procedure: as §1, §2, §3

[2] = tested on: Echinochloa crus-galli (ECHCG); experiment: Post-emergence herbicidal action; conditions: for Post-emergence action ECHCG: 320 g/ha, visual rating after about 3 weeks vs untreated controls, 100% = plants have died
Procedure: as §1, §2, §3

[3] = tested on: Lolium multiflorum (LOLMU); experiment: Post-emergence herbicidal action; conditions: 320 g/ha, visual rating after about 3 weeks vs untreated controls, 100% = plants have died
Procedure: as §1, §2, §3

[4] = tested on: Matricaria inodora (MATIN); experiment: Post-emergence herbicidal action
Procedure: as §1, §2, §3

Setaria viridis (SETVI) [5] = experiment: Post-emergence herbicidal action; conditions: for Post-emergence action SETVI: 320 g/ha, visual rating after about 3 weeks vs untreated controls, 100% = plants have died
Procedure: as §1, §2, §3

Stellaria media (STEME) [6] = experiment: Post-emergence herbicidal action; conditions: 320 g/ha, visual rating after about 3 weeks vs untreated controls, 100% = plants have died
Procedure: as §1, §2, §3

[7] = tested on: Amaranthus retroflexus (AMARE); experiment: Post-emergence herbicidal action; conditions: 320 g/ha, visual rating after about 3 weeks vs untreated controls, 100% = plants have died
Procedure: as §1, §2

Veronica persica (VERPE) [8] = experiment: Post-emergence herbicidal action; conditions: 320 g/ha, visual rating after about 3 weeks vs untreated controls, 100% = plants have died
Procedure: as §1, §2

Viola tricolor (VIOTR) [9] = experiment: Post-emergence herbicidal action; conditions: 320 g/ha, visual rating after about 3 weeks vs untreated controls, 100% = plants have died
Procedure: as §1, §2

[10] = tested on: Alopecurus myosuroides (ALOMY); experiment: Pre-emergence herbicidal action; conditions: for Herbicidal action against ALOMY: 80 g of a.i./ha, comparative test; for Pre-emergence action ALOMY: 320 g/ha, visual scoring after about 3 weeks vs untreated controls, 100% = plants have died
From the text: as §2
(§4) Seeds of monocotyledonous and dicotyledonous weed plants and crop plants are placed in plastic or organic plant pots and covered with soil. The compounds of the invention, formulated in the form of wettable powders (WP) or as emulsion concentrates (EC), are then applied onto the surface of the covering soil as aqueous suspension or emulsion with addition of 0.5% additive at a water application rate of 600 l/ha (converted). After the treatment, the pots are placed in a greenhouse and kept under good growth conditions for the trial plants. After about 3 weeks, the effect of the preparations is scored visually in comparison with untreated controls as percentages. For example, 100% activity=the plants have died, 0% activity=like control plants.
as §3

[11] = tested on: Echinochloa crus-galli (ECHCG); experiment: Pre-emergence herbicidal action; conditions: for Herbicidal action against ECHCG: 80 g of a.i./ha, comparative test
From the text: as §2, §4, §3

[12] = tested on: Matricaria inodora (MATIN); experiment: Pre-emergence herbicidal action; conditions: for Herbicidal action against MATIN: 80 g of a.i./ha, comparative test; for Pre-emergence action MATIN: 320 g/ha, visual scoring after about 3 weeks vs untreated controls, 100% = plants have died
From the text: as §2, §4, §3

[13] = tested on: Polygonum convolvulus (POLCO); experiment: Pre-emergence herbicidal action; conditions: for Herbicidal action against POLCO: 80 g of a.i./ha, comparative test
From the text: as §2, §4, §3

Setaria viridis (SETVI) [14] = experiment: Pre-emergence herbicidal action; conditions: for Herbicidal action against SETVI: 80 g of a.i./ha, comparative test; for Pre-emergence action SETVI: 320 g/ha, visual scoring after about 3 weeks vs untreated controls, 100% = plants have died
From the text: as §2, §4, §3

Stellaria media (STEME) [15] = experiment: Pre-emergence herbicidal action; conditions: for Pre-emergence action STEME: 320 g/ha, visual scoring after about 3 weeks vs untreated controls, 100% = plants have died
From the text: as §2, §4, §3

Viola tricolor (VIOTR) [16] = experiment: Pre-emergence herbicidal action; conditions: for Herbicidal action against VIOTR: 80 g of a.i./ha, comparative test; for Pre-emergence action VIOTR: 320 g/ha, visual scoring after about 3 weeks vs untreated controls, 100% = plants have died
From the text: as §2, §4, §3

[17] = tested on: Amaranthus retroflexus (AMARE); experiment: Pre-emergence herbicidal action; conditions: 320 g/ha, visual scoring after about 3 weeks vs untreated controls, 100% = plants have died
From the text: as §2, §4

[18] = tested on: Pharbitis purpurea (PHBPU); experiment: Pre-emergence herbicidal action; conditions: 320 g/ha, visual scoring after about 3 weeks vs untreated controls, 100% = plants have died
From the text: as §2, §4

Veronica persica (VERPE) [19] = experiment: Pre-emergence herbicidal action; conditions: 320 g/ha, visual scoring after about 3 weeks vs untreated controls, 100% = plants have died
From the text: as §2, §4

[20] = tested on: harmful plants such as Abutilon theophrasti, Alopecurus myosuroides, Amaranthus retroflexus, Avena fatua, Echinochloa crus-galli, Matricaria inodora, Pharbitis …; experiment: Post-emergence herbicidal action, summary in text; conditions: post-emergence treatment
Procedure: as §1
In this case, for example, in the post-emergence process, the compounds No. 1-001 and 111-001 have very good herbicidal activity (80% to 100% herbicidal action) against harmful plants such as Abutilon theophrasti, Alopecurus myosuroides, Amaranthus retroflexus, Avena fatua, Echinochloa crus-galli, Matricaria inodora, Pharbitis purpurea, Setaria viridis, Stellaria media, Veronica persica and Viola tricolor at an application rate of 0.32 kg of active substance or less per hectare. At the same time, some compounds according to the invention leave graminaceous crops such as barley, wheat, rye, millet/sorghum, maize, rice or sugarcane virtually undamaged when applied by the post-emergence method, even at high active compound dosages. Some substances are additionally also benign to dicotyledonous crops such as soya, cotton, oilseed rape or sugarbeet.

[21] = tested on: Alopecurus myosuroides (ALOMY); experiment: Post-emergence herbicidal action
Procedure: as §1, §2, §3

[22] = tested on: Abutilon theophrasti (ABUTH); experiment: Pre-emergence herbicidal action; conditions: 320 g/ha, visual scoring after about 3 weeks vs untreated controls, 100% = plants have died
From the text: as §2, §4

[23] = tested on: Digitaria sanguinalis (DIGSA); experiment: Pre-emergence herbicidal action; conditions: 320 g/ha, visual scoring after about 3 weeks vs untreated controls, 100% = plants have died
From the text: as §2, §4

[24] = tested on: Lolium rigidum Gaudin (LOLRI); experiment: Pre-emergence herbicidal action; conditions: 320 g/ha, visual scoring after about 3 weeks vs untreated controls, 100% = plants have died
From the text: as §2, §4

[25] = 320 g/ha, visual rating after about 3 weeks vs untreated controls, 100% = plants have died
[26] = 320 g/ha, visual scoring after about 3 weeks vs untreated controls, 100% = plants have died
[27] = 80 g of a.i./ha, comparative test

FC(F)(F)c1cccc(Oc2nc(C3CC3)cc(-n3cc(C(F)(F)F)cn3)n2)c1 [II-001]
60%: Herbicidal action against ALOMY [10]
100%: Post-emergence action VERPE (Veronica persica (VERPE) [8]) | Post-emergence action VIOTR (Viola tricolor (VIOTR) [9]) | Pre-emergence action ALOMY [10] | Pre-emergence action MATIN [12] | Pre-emergence action SETVI (Setaria viridis (SETVI) [14])
good herbicidal action: herbicidal action against harmful plants (in words) [20]
50%: Post-emergence action AVEFA (Avena fatua (AVEFA))
20%: Herbicidal action against POLCO [13]
70%: Post-emergence action LOLMU [3]
80%: Post-emergence action ECHCG [2] | Post-emergence action MATIN [4, 25] | Post-emergence action SETVI (Setaria viridis (SETVI) [5]) | Herbicidal action against ECHCG [11] | Pre-emergence action ECHCG [11, 26] | Herbicidal action against MATIN [12] | Pre-emergence action PHBPU [18]
90%: Post-emergence action ABUTH [1] | Post-emergence action STEME (Stellaria media (STEME) [6]) | Post-emergence action AMARE [7] | Herbicidal action against SETVI (Setaria viridis (SETVI) [14]) | Pre-emergence action STEME (Stellaria media (STEME) [15]) | Herbicidal action against VIOTR (Viola tricolor (VIOTR) [16]) | Pre-emergence action VIOTR (Viola tricolor (VIOTR) [16]) | Pre-emergence action AMARE [17] | Pre-emergence action VERPE (Veronica persica (VERPE) [19])

FC(F)(F)Oc1cccc(Oc2nc(C3CC3)cc(-n3cc(C(F)(F)F)cn3)n2)c1 [II-004]
80%: Post-emergence action ALOMY [21, 25] | Post-emergence action STEME (Stellaria media (STEME) [6]) | Herbicidal action against MATIN [12] | Pre-emergence action ABUTH [22] | Pre-emergence action PHBPU [18]
30%: Herbicidal action against ECHCG [11]
40%: Herbicidal action against ECHCG [2, 27] | Herbicidal action against MATIN [4, 27]
70%: Herbicidal action against ALOMY [10] | Herbicidal action against STEME (Stellaria media (STEME) [15]; [27])
90%: Post-emergence action ECHCG [2] | Post-emergence action SETVI (Setaria viridis (SETVI) [5]) | Post-emergence action AMARE [7] | Post-emergence action VERPE (Veronica persica (VERPE) [8]) | Post-emergence action VIOTR (Viola tricolor (VIOTR) [9]) | Pre-emergence action ALOMY [10] | Pre-emergence action POLCO [13, 26] | Pre-emergence action LOLRI [24]
100%: Pre-emergence action MATIN [12] | Herbicidal action against SETVI (Setaria viridis (SETVI) [14]) | Pre-emergence action SETVI (Setaria viridis (SETVI) [14]) | Pre-emergence action STEME (Stellaria media (STEME) [15]) | Herbicidal action against VIOTR (Viola tricolor (VIOTR) [16]) | Pre-emergence action VIOTR (Viola tricolor (VIOTR) [16]) | Pre-emergence action AMARE [17] | Pre-emergence action DIGSA [23] | Pre-emergence action VERPE (Veronica persica (VERPE) [19])
50%: Herbicidal action against ALOMY [21, 27] | Herbicidal action against SETVI (Setaria viridis (SETVI) [5]; [27]) | Herbicidal action against POLCO [13]
